21 compounds from patent publication US8575145B2, “Triazolopyridine compounds as PIM kinase inhibitors” (Array BioPharma Inc., priority 2008, dated 2013) can be followed below.

One may read the IC50 as the concentration at which inhibition is half-maximal.

Structures can show the parent of a compound that is named as a salt. Where two headings read alike, the source gives them in different places.

Assay [1] deals with GST-tagged recombinant full-length human PIM-2 (Homo sapiens (Human), UniProt Q9P1W9). Kind of assay: PIM-2 Enzyme Assay. As to conditions: 4 μM ATP, […] PIM-2.
Sequence of GST-tagged recombinant full-length human PIM-2 (Q9P1W9 whole entry): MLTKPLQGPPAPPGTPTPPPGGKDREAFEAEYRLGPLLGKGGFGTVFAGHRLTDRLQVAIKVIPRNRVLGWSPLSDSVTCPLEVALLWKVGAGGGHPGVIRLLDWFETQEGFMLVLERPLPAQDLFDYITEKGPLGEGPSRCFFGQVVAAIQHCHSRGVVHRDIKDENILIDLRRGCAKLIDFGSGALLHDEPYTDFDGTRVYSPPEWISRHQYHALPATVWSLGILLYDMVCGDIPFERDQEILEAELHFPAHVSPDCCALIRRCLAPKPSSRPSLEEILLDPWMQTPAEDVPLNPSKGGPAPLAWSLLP
Another assay has as its target recombinant rat PIM-3 (Rattus norvegicus (Rat), UniProt O70444). The experiment in a line: PIM-3 Enzyme Assay. As to conditions: 30 μM ATP, 0.5 nM PIM-3.
A further assay deals with PIM-1 (Homo sapiens (Human), UniProt P11309). The experiment in a line: PIM-1 Enzyme Assay. The note with it: 35 μM ATP, 0.25 nM PIM-1. It counts as biochemical. On the procedure:
The amount of radiolabeled product is then measured by liquid scintillation counting. The final buffer conditions were as follows: 20 mM K^+MOPS, pH 7.4, 10 mM MgCl2, 0.005% Tween-20, 1 mM DTT. […] Incubations were carried out for 60 min at 22° C. and quenched with 75 μL of 200 mM H3PO4, filtered through a Whatman P81 plate and washed (1×200 μL and 5×100 μL ) with 200 mM H3PO4. Liquid scintillation cocktail (50 μL ) was then added per well, and the plate was counted for 30 s/well using a TopCount NXT.
One-μL aliquots of these were then transferred to the assay mixtures above to give a final concentration of DMSO of 2%. […] For each plate, percent of control (POC) values were calculated for each well. IC50's were estimated from the POC's using a standard 4-parameter logistic model. The IC50 is defined as the concentration of inhibitor at which the POC equals 50 for the fitted curve.

Sequence of PIM-1 (P11309 whole entry, species assumed): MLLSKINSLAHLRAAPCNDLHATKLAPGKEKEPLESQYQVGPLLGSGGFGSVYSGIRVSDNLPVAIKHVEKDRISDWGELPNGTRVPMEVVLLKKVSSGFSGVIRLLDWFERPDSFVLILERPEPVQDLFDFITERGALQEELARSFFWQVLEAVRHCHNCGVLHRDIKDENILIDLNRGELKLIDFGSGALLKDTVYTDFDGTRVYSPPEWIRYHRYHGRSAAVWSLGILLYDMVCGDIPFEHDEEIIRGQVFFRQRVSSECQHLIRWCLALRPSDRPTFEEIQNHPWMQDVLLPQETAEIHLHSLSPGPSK

Turning to `F[C@H]1CNCC[C@@H]1Oc1cccc2ccc(-c3nnc4ccccn34)nc12` (relative stereo) [Example 25, 2-([1,2,4]triazolo[4,3-a]pyridin-3-yl)-8-((trans)-3-fluoropiperidin-4-yloxy)quinoline], the results for the IC50 (in assay [1] (read-out: PIM-2 IC50); at recombinant rat PIM-3 (read-out: PIM-3 IC50); at PIM-1) were 686 nM, 20 nM and 4 nM, respectively.
Turning to `Fc1ccc2nnc(-c3ccc4cccc(O[C@H]5CCNC[C@H]5F)c4n3)n2c1` (relative stereo) [Example 59, 2-(6-fluoro-[1,2,4]triazolo[4,3-a]pyridin-3-yl)-8-((cis)-3-fluoropiperidin-4-yloxy)quinoline], the IC50 in assay [1] (read-out: PIM-2 IC50) is 2870 nM; on recombinant rat PIM-3 (read-out: PIM-3 IC50) it was 98 nM; against PIM-1, 55 nM.
Consider `Fc1cc(O[C@H]2CCNC[C@H]2F)c2nc(-c3nnc4ccccn34)ccc2c1` (relative stereo) [Example 88, 2-([1,2,4]triazolo[4,3-a]pyridin-3-yl)-6-fluoro-8-((cis)-3-fluoropiperidin-4-yloxy)quinoline], for which the figures for the IC50 (in assay [1] (read-out: PIM-2 IC50); on recombinant rat PIM-3 (read-out: PIM-3 IC50); at PIM-1) were 502 nM, 24 nM and 8 nM, respectively.
Turning to `FC1CCNCCC1Oc1cccc2ccc(-c3nnc4ccccn34)nc12` (single isomer, unassigned) [Example 47, 2-([1,2,4]triazolo[4,3-a]pyridin-3-yl)-8-(-5-fluoroazepan-4-yloxy)quinoline dihydrochloride], the figures for the IC50 (in assay [1] (PIM-2 IC50 (nM)); on recombinant rat PIM-3 (PIM-3 IC50 (nM)); on PIM-1) were 1170 nM, 41 nM and 32 nM, respectively.
Consider `FC1CCNCCC1Oc1cccc2ccc(-c3nnc4ccccn34)nc12` (single isomer, unassigned) [Example 48, 2-([1,2,4]triazolo[4,3-a]pyridin-3-yl)-8-(5-fluoroazepan-4-yloxy)quinoline dihydrochloride], for which the results for the IC50 (in assay [1] (PIM-2 IC50 (nM)); at recombinant rat PIM-3 (PIM-3 IC50 (nM)); against PIM-1) were 147 nM, 4 nM and 0.7 nM, respectively.
The corresponding values for `FC1CCNCCC1Oc1cccc2ccc(-c3nnc4ccccn34)nc12` (single isomer, unassigned) [Example 49, 2-([1,2,4]triazolo[4,3-a]pyridin-3-yl)-8-(5-fluoroazepan-4-yloxy)quinoline dihydrochloride] are 100 nM, 2 nM and 0.92 nM.
`FC1CCNCCC1Oc1cccc2ccc(-c3nnc4ccccn34)nc12` (single isomer, unassigned) [Example 50, 2-([1,2,4]triazolo[4,3-a]pyridin-3-yl)-8-(5-fluoroazepan-4-yloxy)quinoline dihydrochloride]: the IC50 in assay [1] (PIM-2 IC50 (nM)) is 290 nM; on recombinant rat PIM-3 (PIM-3 IC50 (nM)), 8 nM; at PIM-1, 12 nM.
`Fc1cc(OC2CCNCCC2F)c2nc(-c3nnc4ccccn34)ccc2c1` (single isomer, unassigned) [Example 90, cis-2-([1,2,4]triazolo[4,3-a]pyridin-3-yl)-6-fluoro-8-5-fluoroazepan-4-yloxy)quinoline]: the IC50 in assay [1] (read-out: PIM-2 IC50) was 131 nM; at recombinant rat PIM-3 (read-out: PIM-3 IC50), 2 nM; at PIM-1 it was 0.4 nM.
The like results for `Fc1cc(OC2CCNCCC2F)c2nc(-c3nnc4ccccn34)ccc2c1` (single isomer, unassigned) [Example 91, trans-2-([1,2,4]triazolo[4,3-a]pyridin-3-yl)-6-fluoro-8-5-fluoroazepan-4-yloxy)quinoline] were, in that order, 39 nM, 0.9 nM and 0.8 nM.
For `Cc1ccn2c(-c3ccc4cccc(OC5CCNCCC5F)c4n3)nnc2c1` (single isomer, unassigned) [Example 92, cis-8-5-fluoroazepan-4-yloxy)-2-(7-methyl-[1,2,4]triazolo[4,3-a]pyridin-3-yl)quinoline], the IC50 worked out at 244 nM in assay [1] (read-out: PIM-2 IC50), 3 nM at recombinant rat PIM-3 (read-out: PIM-3 IC50) and 1 nM against PIM-1.
In the case of `Cc1ccc2nnc(-c3ccc4cccc(OC5CCNCCC5F)c4n3)n2c1` (single isomer, unassigned) [Example 99, 8-((trans)-5-fluoroazepan-4-yloxy)-2-(6-methyl-[1,2,4]triazolo[4,3-a]pyridin-3-yl)quinoline dihydrochloride], the IC50 in assay [1] (read-out: PIM-2 IC50, dihydrochloride) amounted to 1000 nM; at recombinant rat PIM-3 (read-out: PIM-3 IC50, dihydrochloride), 39.7 nM; against PIM-1 (dihydrochloride) it was 17.4 nM.
Turning to `Cc1ccc2nnc(-c3ccc4cccc(OC5CCNCCC5F)c4n3)n2c1` (single isomer, unassigned) [Example 100, 8-((trans)-5-fluoroazepan-4-yloxy)-2-(6-methyl-[1,2,4]triazolo[4,3-a]pyridin-3-yl)quinoline], the IC50 in assay [1] (read-out: PIM-2 IC50) is 352 nM; on recombinant rat PIM-3 (read-out: PIM-3 IC50), 2 nM; against PIM-1, 1.5 nM.
As for `NCCCOc1cccc2ccc(-c3nnc4ccccn34)nc12` [Example 10, 3-(2-([1,2,4]Triazolo[4,3-a]pyridin-3-yl)quinolin-8-yloxy)propan-1-amine], the 50% inhibitory concentration (IC50) in assay [1] (read-out: PIM-2 IC50) was 514 nM; on recombinant rat PIM-3 (read-out: PIM-3 IC50), 13 nM.
`COC(=O)[C@@H]1C[C@@H](Oc2cccc3ccc(-c4nnc5ccccn45)nc23)CCN1` [Example 13, (2S,4S)-Methyl 4-(2-([1,2,4]triazolo[4,3-a]pyridin-3-yl)quinolin-8-yloxy)piperidine-2-carboxylate]: the IC50 in assay [1] (read-out: PIM-2 IC50) was determined as 189 nM; at recombinant rat PIM-3 (read-out: PIM-3 IC50), 9 nM.
`CC(C)(CO)COc1cccc2ccc(-c3nnc4ccccn34)nc12` [Example 24, 3-(2-([1,2,4]triazolo[4,3-a]pyridin-3-yl)quinolin-8-yloxy)-2,2-dimethylpropan-1-ol]: the results for the half-inhibitory concentration (IC50) (in assay [1] (read-out: PIM-2 IC50); at recombinant rat PIM-3 (read-out: PIM-3 IC50)) were 77 nM and 4 nM, respectively.
The corresponding values for `CCNCC(C)(C)COc1cccc2ccc(-c3nnc4ccccn34)nc12` [Example 27, 3-(2-([1,2,4]triazolo[4,3-a]pyridin-3-yl)quinolin-8-yloxy)-N-ethyl-2,2-dimethylpropan-1-amine di-trifluoroacetate] are 323 nM and 13 nM.
Turning to `CNCC(C)(C)COc1cccc2ccc(-c3nnc4ccccn34)nc12` [Example 28, 3-(2-([1,2,4]triazolo[4,3-a]pyridin-3-yl)quinolin-8-yloxy)-N,2,2-trimethylpropan-1-amine], the results for the IC50 (in assay [1] (read-out: PIM-2 IC50); on recombinant rat PIM-3 (read-out: PIM-3 IC50)) were 143 nM and 4 nM, respectively.
`COC(=O)[C@@H]1C[C@H](Oc2cccc3ccc(-c4nnc5ccccn45)nc23)CN1` [Example 87, (2S,4S)-methyl 4-(2-([1,2,4]triazolo[4,3-a]pyridin-3-yl)quinolin-8-yloxy)pyrrolidine-2-carboxylate]: the IC50 is 248 nM at recombinant rat PIM-3 (read-out: PIM-3 IC50) and 167 nM at PIM-1.
As for `CC(C)(COc1cccc2ccc(-c3nnc4ccccn34)nc12)[C@@H](O)CO` [Example 113, (R)-4-(2-([1,2,4]triazolo[4,3-a]pyridin-3-yl)quinolin-8-yloxy)-3,3-dimethylbutane-1,2-diol], the IC50 is 167 nM in assay [1] (read-out: PIM-2 IC50) and 8.8 nM at recombinant rat PIM-3 (read-out: PIM-3 IC50).
Turning to `CC(C)(CNC(=O)CF)COc1cccc2ccc(-c3nnc4ccccn34)nc12` [Example 134, N-(3-(2-([1,2,4]triazolo[4,3-a]pyridin-3-yl)quinolin-8-yloxy)-2,2-dimethylpropyl)-2-fluoroacetamide], the results for the IC50 (in assay [1] (read-out: PIM-2 IC50); on PIM-1) were 952 nM and 10.1 nM, respectively.
The like results for `CC(C)(CNCC(F)F)COc1cccc2ccc(-c3nnc4ccccn34)nc12` [Example 135, 3-(2-([1,2,4]triazolo[4,3-a]pyridin-3-yl)quinolin-8-yloxy)-N-(2,2-difluoroethyl)-2,2-dimethylpropan-1-amine hydrochloride] were, in that order, 506 nM and 12.6 nM.
